From US11730705B2, “Small molecule CMKLR1 antagonists in inflammatory disease” (The Board of Trustees of the Leland Stanford Junior …, priority 2019, dated 2023)
Where two headings read alike, the source gives them in different places.

Columns and labels:
[1] = molecular target: T1, CMKLR1 (Homo sapiens, UniProt Q99788); experiment: β-arrestin recruitment assay (chemerin-mediated β-arrestin2 association with CMKLR1); format: cell-based
T1 construct: host or cells: CHO-K1 (PathHunter)
T1 sequence (Q99788 1-373): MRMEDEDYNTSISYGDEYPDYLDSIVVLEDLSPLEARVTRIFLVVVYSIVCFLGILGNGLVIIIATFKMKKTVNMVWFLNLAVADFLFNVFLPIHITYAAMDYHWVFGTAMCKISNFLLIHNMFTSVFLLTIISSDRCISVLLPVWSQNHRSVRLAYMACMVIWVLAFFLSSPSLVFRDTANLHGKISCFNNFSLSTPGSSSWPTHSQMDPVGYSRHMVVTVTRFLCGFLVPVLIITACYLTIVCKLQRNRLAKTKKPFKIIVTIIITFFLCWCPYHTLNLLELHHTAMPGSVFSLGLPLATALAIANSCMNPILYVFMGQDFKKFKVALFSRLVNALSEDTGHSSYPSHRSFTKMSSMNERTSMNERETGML
Procedure: (§1) FIG. 15A-15D. […] IC50 values were determined based on 6-point dose-response curves for each compound. (FIG. 15A) α-NETA. […] (FIG. 15A-15C) mean±SEM, n=3-18 independent experiments. […] 0.2 ml each compound (in 10% captisol) or vehicle control was administered by oral gavage beginning one day prior to psoriasis induction. Back skin thickness was measured daily and normalized to day 0. mean±SEM, n=10 mice for vehicle and α-NETA groups pooled from two independent trials; n=3 mice for (27) and (6) from one trial.
Cell culture. […] DiscoverX PathHunter® CHO-K1 CMKLR1 β-Arrestin Cells were grown in RPMI lacking phenol red (Gibco, Life Technologies), supplemented with L-glutamine, penicillin-streptomycin, sodium pyruvate, non-essential amino acid, BCS, hygromycin, and G418-sulfate.
β-arrestin recruitment assay. CMKLR1-CHO-β-Arrestin cells were seeded in 96 well plates at 1×10^5 cell/ml-100 ul/well and incubated overnight at 37° C., 5% CO2. The next day, media was removed and cells were pre-incubated in PBS with α-NETA or test compound (95 ul/well) in a 6 point dose response curve from 100 μM to 0.3 μM for 10 min at RT. (α-NETA and test compounds were reconstituted in DMSO; final DMSO concentration in each well was 0.1%). After 10 min, 5 ul of recombinant human chemerin (R&D Systems) at a final concentration of 20 nM was added to each well. Plates were incubated for 90 min at 37° C., 5% CO2. Media was then removed and 50 ul of chemiluminescent substrate (Tropix Gal-Screen, Applied Biosciences) was added. The plate was incubated for 1 hr at RT and luminescence was detected using the SpectraMax M5 plate reader (Molecular Devices). For each independent trial (single replicate dose curves), data was normalized to the maximum signal per compound tested and an IC50 value was generated using GraphPad Prism software. The average IC50 value for n independent trials (as specified in the table) is reported.

[2] = test system: IMQ-induced psoriasis in mice; experiment: IMQ-induced psoriasis model; format: in vivo, mouse; conditions: for clinical features of experimental psoriasis: oral gavage in 10% captisol, FIG. 15D
Procedure: FIG. 11A-11G. […] Representative images of the same mouse shown over time. […] Mice were treated twice daily with IMQ±dexamethasone (DEX, 200 ug/mouse) 1 h prior to IMQ treatment. […] (FIG. 11G) NK cell (CD45+DX5+CD11b-CD3-CD19-) infiltration into lesional or non-lesional adjacent skin was determined by flow cytometry (6 day timepoint) for IMQ-treated WT and chemerin KO mice. mean±SEM, n=4 mice per genotype, ***p<0.005 by 2-tailed t-test; **p<0.01 by 2-tailed t-test; *p<0.05 by 1-tailed t-test.
FIG. 13A-13D. […] Fold change with respect to day 0 measurements are shown. […] For A-C, n=3 untreated, n=5 IMQ-treated mice of each genotype, mean±SEM, *p<0.05 by 2-tailed t-test.
as §1

[3] = test system: EAE in C57BL/6 mice; experiment: EAE induced by MOG35-55/CFA immunization; format: in vivo, mouse; conditions: Table 4, 10 mg/kg daily to D 21, n = 8; for Maximum Score (Mean ± SEM): clinical score 0-5; for AUC (Mean ± SEM): mean clinical score × day
Procedure: FIG. 1A-1D. […] (FIG. 1D) The integrated clinical score over time for each animal was calculated as area under the curve (AUC).
EAE. […] CFA consisted of 5 mg/ml mTB (Mycobacterium-tuberculosis H37 Ra, BD Difco) in IFA (Incomplete Freund's Adjuvant, Sigma). MOG35-55 was reconstituted at 2 mg/ml in PBS. Mice also received 200 ng pertussis toxin (List Biological Laboratories, Inc) by i.p. injection at the time of immunization and two days later. […] For a direct comparison to α-NETA, the DMF and compound doses were also 10 mg/kg in 10% captisol. Mice were monitored daily for clinical disease and scored (0=normal/healthy, 1=limp tail, 2=hindlimb weakness, 3=hindlimb paralysis, 4=hindlimb and forelimb paralysis, 5=moribund/dead).

[4] = molecular target: T2, (hu)CMKLR1 L1.2 cells (Homo sapiens, UniProt Q99788); experiment: Chemotaxis assay (chemerin-dependent CMKLR1+ cell migration); format: cell-based; conditions: for IC50: Table 3, migration toward huChemerin, 2 h transwell, read-out: Chemotaxis IC50 μM mean ± SEM (n)
T2 construct: expressed in transfected cells; host or cells: L1.2 pre-B cell lymphoma cells
T2 sequence (Q99788 1-373): T1 sequence (Q99788 1-373)
Procedure: Cell culture. (hu)CMKLR1 transfectants (generated in L1.2 pre-B cell lymphoma cells) were grown in RPMI 1640 (Corning) supplemented with L-glutamine, penicillin-streptomycin, and 10% BCS and G418-sulfate (KSE Scientific). DiscoverX PathHunter® CHO-K1 CMKLR1 β-Arrestin Cells were grown in RPMI lacking phenol red (Gibco, Life Technologies), supplemented with L-glutamine, penicillin-streptomycin, sodium pyruvate, non-essential amino acid, BCS, hygromycin, and G418-sulfate.
Chemotaxis assay. (hu)CMKLR1 L1.2 cells at 1×10^6 cell/ml were treated with 5 mM sodium butyrate (Sigma) overnight to induce hCMKLR1 expression. The next day, cells were washed in migration media (RPMI+0.5% BSA) and resuspended at 1.5-3×10^6 cell/ml. Cells were pre-incubated at RT for 10 min with various concentrations of α-NETA or test compounds (α-NETA and test compounds were reconstituted in DMSO; final DMSO concentration in each well was 0.1%). 100 ul of cells were added to the upper chamber of a 24-well transwell plate (5 um pore size, Costar). Cells were allowed to migrate toward huChemerin ([…] in migration media, bottom chamber) for 2 h, 37° C., 5% CO2. The number of migrated cells was quantified by flow cytometry (BD LSR2), and live cells were distinguished based on FSC×SSC properties. The background for this assay was typically low with 0 cells migrating to the buffer alone. For each independent trial, data was normalized to the maximum migration per compound tested and an IC50 value was generated using GraphPad Prism software. The average IC50 value for n independent trials (as specified in the table) is reported.

[5] = Table 2, tertiary amines, chemerin 20 nM, CHO transfectants, read-out: β-arrestin IC50 μM mean ± SEM (n)
[6] = Table 3, quaternary ammonium salts, chemerin 20 nM, CHO transfectants, read-out: β-arrestin IC50 μM mean ± SEM (n)
[7] = values given in running text b220, read-out: β-arrestin2 assay IC50

## CN(C)CCC(=O)c1cccc2ccccc12 [Compound 3]
[1]; [5]
  IC50: 18.8 µM

## CCN(C)CCC(=O)c1cccc2ccccc12 [Compound 4]
[1]; [5]
  IC50: 17.9 µM

## CCN(CC)CCC(=O)c1cccc2ccccc12 [Compound 5]
[1]; [5]
  IC50: 8.9 ± 2.4 µM

## COc1ccc2ccccc2c1C(=O)CCN(C)C [Compound 6]
[2]
  clinical features of experimental psoriasis: suppressed
[3]
  Maximum Score (Mean ± SEM): 2.4 ± 0.2
  AUC (Mean ± SEM): 25.2 ± 4.0
  Day of onset (Mean ± SEM): 14.5 ± 0.4
[1]; [5]
  IC50: 6.2 ± 2.5 µM

## CN(C)CCC(=O)c1ccc2ccccc2c1 [Compound 7]
[1]; [5]
  IC50: 18.5 µM

## CCN(CC)CCC(=O)c1ccc2ccccc2c1 [Compound 8]
[1]; [5]
  IC50: 71.3 µM

## CCN(C)CCC(=O)c1ccc2ccccc2c1 [Compound 9]
[1]; [5]
  IC50: 39.6 µM

## CCCCN(C)CCC(=O)c1ccc2ccccc2c1 [Compound 10]
[1]; [5]
  IC50: 44.5 µM

## COc1ccc2cc(C(=O)CCN(C)C)ccc2c1 [Compound 11]
[1]; [5]
  IC50: > 100 µM

## CN(C)CCC(=O)c1ccccc1 [Compound 12]
[1]; [5]
  IC50: > 100 µM

## CCN(C)CCC(=O)c1ccccc1 [Compound 13]
[1]; [5]
  IC50: 16.8 ± 8.3 µM

## CCN(CC)CCC(=O)c1ccccc1 [Compound 14]
[1]; [5]
  IC50: 77.8 µM

## CCCCN(C)CCC(=O)c1ccccc1 [Compound 15]
[1]; [5]
  IC50: > 100 µM

## COc1ccccc1C(=O)CCN(C)C [Compound 16]
[1]; [5]
  IC50: > 100 µM

## COc1ccc(C(=O)CCN(C)C)cc1 [Compound 17]
[1]; [5]
  IC50: > 100 µM

## COc1cccc(C(=O)CCN(C)C)c1 [Compound 18]
[1]; [5]
  IC50: 64 µM

## COc1cccc(OC)c1C(=O)CCN(C)C [Compound 19]
[1]; [5]
  IC50: 10.3 ± 4.5 µM

## CN(C)CCC(=O)C1CCCCC1 [Compound 20]
[1]
  activity in β-arrestin2 assay: complete loss of activity
[1]; [5]
  IC50: > 100 µM

## C[N+](C)(C)CCC(=O)c1ccc2ccccc2c1 [Compound 23]
[1]; [6]
  IC50: 2.5 ± 0.9 µM
[1]; [7]
  IC50: 3.1 µM
[4]
  IC50: 24.1 µM

## C[N+](C)(C)CCC(=O)c1ccccc1 [Compound 24]
[1]
  activity in β-arrestin2 assay: showed activity
[1]; [6]
  IC50: 5.6 ± 0.7 µM
[1]; [7]
  IC50: 4.3 µM
[4]
  activity in chemotaxis assay: did not show any activity
  IC50: > 100 µM

## C[N+](C)(C)CCC(=O)C1CCCCC1 [Compound 25]
[1]; [7]
  IC50: 11.9 µM
[4]
  IC50: > 100 µM

## COc1ccccc1C(=O)CC[N+](C)(C)C [Compound 26]
[1]
  activity in β-arrestin2 assay: highly active
[1]; [6]
  IC50: 2.9 ± 1.6 µM
[4]
  activity in chemotaxis assay: highly active
  IC50: 7.2 µM

## COc1ccc(C(=O)CC[N+](C)(C)C)cc1 [Compound 27]
[2]
  clinical features of experimental psoriasis: suppressed
[3]
  Maximum Score (Mean ± SEM): 2.1 ± 0.1¶
  AUC (Mean ± SEM): 24.3 ± 4.2
  Day of onset (Mean ± SEM): 16.0 ± 0.9
[1]
  activity in β-arrestin2 assay: highly active
[1]; [6]
  IC50: 1.9 ± 0.2 µM
[4]
  activity in chemotaxis assay: highly active
  IC50: 4.5 ± 1.5 µM

## COc1cccc(C(=O)CC[N+](C)(C)C)c1 [Compound 28]
[1]; [6]
  IC50: 3.8 ± 1.7 µM
[4]
  IC50: 14.6 ± 4.8 µM

## COc1ccc(C(=O)CC[N+](C)(C)C)c(OC)c1 [Compound 29]
[1]; [6]
  IC50: 4.8 ± 1.6 µM
[4]
  IC50: 17.4 ± 2.2 µM

## COc1cccc(OC)c1C(=O)CC[N+](C)(C)C.[I-] [Compound 30]
[1]
  activity in β-arrestin2 assay: highly active
[1]; [6]
  IC50: 2.1 ± 1.1 µM
[4]
  activity in chemotaxis assay: highly active
  IC50: 6.8 µM

## COc1cc(OC)cc(C(=O)CC[N+](C)(C)C)c1 [Compound 31]
[1]; [6]
  IC50: 6 ± 2.2 µM
[4]
  IC50: > 100 µM

## COc1ccc2cc(C(=O)CC[N+](C)(C)C)ccc2c1 [Compound 32]
[1]; [6]
  IC50: 1.5 ± 0.3 µM
[4]
  IC50: 20 ± 6.2 µM

## COc1ccc2ccccc2c1C(=O)CC[N+](C)(C)C [Compound 33]
[1]; [6]
  IC50: 0.6 ± 0.3 µM
[4]
  IC50: 10.7 µM

## C[N+](C)(C)CCS(=O)(=O)c1ccccc1.[I-] [Compound 35]
[1]
  activity in β-arrestin2 assay: inactive

## C[C@@H]1C[C@H]2[C@@H]3CCC4=CC(=O)C=C[C@]4(C)[C@@]3(F)[C@@H](O)C[C@]2(C)[C@@]1(O)C(=O)CO [dexamethasone, reference compound]
[2]; day 5 post-IMQ, 200 ug/mouse 1 h prior to IMQ
  percent inhibition of skin thickening: 62±6%
